Measured values taken from PubChem BioAssay (NCI).
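Growth conditions: 96-well plates. Treatment: test compound, 48 hours, 5 concentrations. Analysis: linear interpolation between bracketing concentrations; unreached endpoints set to highest concentration. GI50 marks 50% less growth. TGI marks complete inhibition of growth.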

How the values were obtained:
Assay in all cases: inhibition of tumour cell growth, NCI panel, 48 h
[1] = tested on: HCT-15 colon
[2] = tested on: HOP-92 NSCLC
[3] = tested on: HS 578T breast
[4] = tested on: MOLT-4 leukemia
[5] = tested on: NCI-H226 lung
[6] = tested on: OVCAR-3 ovarian
[7] = tested on: OVCAR-8 ovarian
[8] = tested on: TK-10 renal
[9] = tested on: U251 CNS
[10] = tested on: RXF 393 renal

Row | SMILES | GI50 [1] [µM] | TGI [1] [µM] | GI50 [2] [µM] | TGI [2] [µM] | TGI [3] [µM] | GI50 [4] [µM] | TGI [4] [µM] | GI50 [5] [µM] | TGI [5] [µM] | GI50 [6] [µM] | TGI [6] [µM] | TGI [7] [µM] | TGI [8] [µM] | GI50 [9] [µM] | TGI [9] [µM] | TGI [10] [µM] | GI50 [3] [µM] | GI50 [7] [µM] | GI50 [10] [µM] | GI50 [8] [µM]
1 | Nc1ccn(C2CCC(CO)O2)c(=O)n1 (stereo not given) | > 1000 | > 1000 | > 1000 | > 1000 | > 1000 | 87.5 | > 1000 | > 1000 | > 1000 | > 1000 | > 1000 | > 1000 | > 1000 | > 1000 | > 1000 |  |  |  |  | 
2 | CCN(CC)c1ccc(N=Nc2ccc(-c3nc4ccc[n+](C)c4s3)cc2)cc1 |  | 32.1 |  | 30.1 |  |  | 24.6 |  | 26.1 |  | 15.9 | 65.3 | 34.5 |  | 27.1 |  |  |  |  | 
3 | CC(C)(C)c1cc(C(O)(C(F)(F)F)C(F)(F)F)c2c(c1)C(C(F)(F)F)(C(F)(F)F)OC(C(C)(C)C)N2 (stereo not given) |  | 11.7 |  |  |  |  | 5.34 |  | 10.2 |  | 9.43 | 13.1 | 11.9 |  | 10.8 | 6.51 |  |  |  | 
4 | COc1ccc(CCN2COc3c([C@@H](C)CCC=C(C)C)ccc(C)c3C2)cc1OC | 2.84 | 10.4 |  |  | 17.3 | 3.69 | > 100 | 8.64 | 21.6 | 3.55 | 14.1 | 20.2 | 5.95 | 1.91 | 4.47 | 4.85 | 3.94 | 4.21 | 1.73 | 2.19
5 | CCOC(=O)NC(=O)c1cn(CCCOC(=O)CCCCCCCCCCC(=O)OCCCn2cc(C(=O)NC(=O)OCC)c(=O)[nH]c2=O)c(=O)[nH]c1=O |  |  |  | > 100 |  |  | > 100 |  | > 100 |  | > 100 | > 100 | > 100 |  | > 100 |  |  |  |  | 
6 | O=C1/C(=C/c2cccc([N+](=O)[O-])c2)COc2ccc(Br)cc21 |  |  |  | > 100 |  |  | 96 |  |  |  | > 100 | > 100 | > 100 |  | > 100 | > 100 |  |  |  | 
7 | COc1cc(/C=C(\C#N)c2ccccc2)cc(OC)c1 |  | > 100 |  |  |  |  | 58.6 |  | > 100 |  | > 100 |  | > 100 |  | > 100 |  |  |  |  | 
8 | Clc1ccc2c(c1)-c1c3c(nn1-c1ccccc1)-c1ccccc1SC3O2 (stereo not given) |  |  |  | > 100 |  |  | > 100 |  |  |  | > 100 | > 100 | > 100 |  | > 100 | > 100 |  |  |  | 
9 | C=CC/C=C/C/C=C/CCCCCCCc1cccc(O)c1C(=O)O |  | > 100 |  | 75 |  |  | > 100 |  |  |  | > 100 | > 100 | > 100 |  | 46 |  |  |  |  | 
10 | CN(C)c1cc[c]([Sn]([c]2ccc(N(C)C)cc2)([c]2ccc(N(C)C)cc2)[c]2ccc(N(C)C)cc2)cc1 | > 100 | > 100 | 8.08 | 20.5 |  | 1.93 | 6.22 |  |  | 3.38 | 18.9 | 56.3 | 31.4 | 8.02 | 21.2 |  |  | 9.57 |  | 15.7
11 | N#CC1CC2(C1)OCCS2 (stereo not given) |  | > 100 |  |  |  |  | > 100 |  | > 100 |  | > 100 | > 100 | > 100 |  | > 100 | > 100 |  |  |  | 
12 | O=C1[C@@H]2C(c3ccccc3F)=NO[C@@H]2C(=O)N1c1ccc(Cc2ccc(N3C(=O)[C@H]4C(c5ccccc5F)=NO[C@H]4C3=O)cc2)cc1 |  | > 100 |  | > 100 |  |  | > 64.4 |  | > 100 |  | > 100 | > 100 | > 31.6 |  | > 100 | > 81.3 |  |  |  | 
13 | NC(=O)NCc1c(C(N)=O)ncn1Cc1ccccc1 |  | > 100 |  | > 100 |  |  | > 100 |  |  |  | > 100 | > 100 | > 100 |  | > 100 | > 100 |  |  |  | 
14 | Cc1c(C(=O)/C=C/c2ccccc2)[n+](=O)c2ccccc2n1[O-] |  |  |  | 28 |  |  | 54.6 |  | 39.2 |  | 30.6 | 28.7 | 51.1 |  | 29.7 | 20.9 |  |  |  | 
15 | O=C(/C=C\c1ccc(NCc2ccc(C(=O)O)cc2)cc1)CCl | 3.35 | 12.7 |  |  | 45.6 | 4.45 | 26.4 | 17.1 | 41.6 | 11.7 | 24.6 | 19.9 |  | 13.9 | 27 |  | 15.7 | 6.98 |  | 
16 | O=C(c1ccccc1)C1OC12C(=O)Nc1ccccc12 (stereo not given) |  |  |  | 55.2 |  |  | 34.1 |  | > 100 |  | 97 | > 100 | > 100 |  |  | 54.7 |  |  |  | 
17 | O=C(Nc1c(Cl)cc([N+](=O)[O-])cc1Cl)C(=O)C(C1OC(=O)c2ccccc21)[N+](=O)[O-] (stereo not given) |  | > 100 |  | 99.1 |  |  | > 100 |  | > 100 |  | > 100 | > 100 | > 100 |  | > 100 | > 100 |  |  |  | 
18 | C1CCC([PH+](C2CCCCC2)C2CCCCC2[PH+](C2CCCCC2)C2CCCCC2)CC1.O=C(C1[CH-]CCCC1)C1CCCC[N-]1.[Au] (stereo not given) |  |  | 0.22 | 0.89 | 1.56 |  |  | 0.455 | 2.43 | 0.272 | 1.19 | > 100 |  |  |  | 1.38 | 0.225 | 0.245 | 0.317 | 
19 | O=C1CC2c3ccccc3CCC2c2ccccc21 (stereo not given) |  | 50.1 |  |  | 53.4 |  | > 100 |  | 52.4 |  | 41.8 | 53.9 | > 100 |  | > 100 |  |  |  |  | 
20 | CC(=O)N[C@H]1CSSC[C@@H](C(N)=O)NC(=O)[C@H](C(C)C)NC(=O)[C@H](C)NC(=O)[C@H](Cc2cnc[nH]2)NC1=O | > 100 | > 100 | > 100 | > 100 |  | > 100 | > 100 | > 100 | > 100 | > 100 | > 100 | > 100 | > 100 | > 100 | > 100 | > 100 |  | > 100 | > 100 | > 100
21 | C[C@]12CC[C@@H]3c4cc(OCC(F)(F)F)c(O)cc4/C(=N/O)C[C@H]3[C@@H]1CC[C@@H]2O | 0.0487 | > 42.5 |  | 26.3 |  | 0.0575 |  |  | > 40.8 |  | 0.0269 | 15.5 | > 100 |  | 1.07 | 0.135 |  | 0.0808 | 0.0322 | 
